Entries after “also recorded” stand apart in the source; their conditions may differ.
How the values were obtained:
[1] = system: ovule explants of Jatropha curcas; test: Induction of embryogenic callus from ovule explants on MS initiation medium; type: cell-based
Text: (§1) The initiation medium was MS basal medium (MS mineral salts and vitamins) supplemented with sucrose (3%) as the carbon source and included phytoagar (0.8%) as a gelling agent. The pH of the medium was 5.8. The germination medium was MS basal medium supplemented with sucrose (3%) as the carbon source and included phytogel (0.25%) as a gelling agent. The pH of the medium was 5.8. The media were dispensed into sterilized Petri dish (90×15 mm size, plastic polycarbonate, Canada). The chemicals used for media preparations were of analytical grade (Duchefa Biochemie, Haarlem, The Netherlands and Sigma Aldrich, Inc., St Louis, USA).
Different hormones were added to the media for the development of the method according to the present invention. In general, the media contained a reduced concentration of phytohormones. The hormones that were tested in the media were phytohormones that will affect growth in the desired manner during different stages of tissue culture. Examples of phytohormones that were tested include natural or synthetic auxin (2,4-D, indole-3-acetic acid (IAA), IBA), cytokinin (BA, KN,), GA3, or cytokinin-active urea derivatives (such as TDZ). The hormones were tested singly or in combination. For induction of embryogenic callus, only 2,4-D (2.26, 4.52, 6.78 and 9.02 μM) was effective.
(§2) The sterilized flower buds were dissected using stereo microscope and the ovules were isolated and injured using dissection needle. The injured ovule explants were inoculated onto initiation medium supplemented with different phytohormones and incubated in dark for 40 days. The callus induced from these ovules was transferred to the fresh initiation medium and cultured in the light (16/8 h (light/dark) photoperiod period, light intensity of 25 μE m^−2s^−1) for somatic embryo development and maturation. The callus with developing and maturing somatic embryos were subcultured every two weeks. The mature cotyledon shaped somatic embryos that developed from this embryogenic callus were transferred to germination medium for germination. The germinating somatic embryos were subcultured every two weeks. The germinated plantlets were hardened and transferred to green house. All cultures were maintained at 25° C.±2° C. with 55%-60% relative humidity. Approximately 12-15 mature cotyledon shaped embryos were developed per 100 mg of embryogenic callus, and 95% of the somatic embryos were developed.

[2] = system: mature somatic embryos of Jatropha curcas; test: Germination of somatic embryos and growth of plantlets on MS germination medium; type: cell-based; settings: for germination of somatic embryos: auxin in combination with GA3 (0.72, 1.44, 2.88, 5.76 μM) in MS medium, IBA 1.23-4.92 μM, IAA 1.42-8.56 μM, NAA 1.34-8.04 μM; for growth of germinated plantlets: added to germination medium (MS with IBA and GA3)
Text: as §1, §2

[3] = system: leaf explants of J. curcas; settings: Jha et al. (2007), cited from earlier work
[4] = system: embryogenic callus from ovules of Jatropha curcas; test: Somatic embryo development and maturation from embryogenic callus; type: cell-based
Protocol: as §2
Induction of callus occurred in MS medium containing different auxins and cytokinins individually as well as in combinations.

[5] = system: embryogenic callus of Jatropha curcas; test: Production of double haploid plantlets by treating embryogenic callus with a mitotic inhibitor; type: cell-based
Protocol: Double haploid plants are produced by treating the embryogenic callus with a mitotic inhibitor. In one embodiment, the embryogenic callus is treated with the mitotic inhibitor for one day to three days, preferably three days. In one embodiment, the mitotic inhibitor is colchicine. In one embodiment, the embryogenic callus is treated with 0.1% to 0.5%, preferably 0.5% colchicine. In another embodiment, the mitotic inhibitor is oryzalin. In one embodiment, the embryogenic callus is treated with 0.1% to 0.5%, preferably 0.5% oryzalin. The mitotic inhibitor is added to the embryogenic callus induction medium, described above, prior to transfer of the embryogenic callus to the fresh initiation medium. The culture conditions for culturing in the presence of the mitotic inhibitor is the same as for somatic embryogenic callus induction. Following treatment with the mitotic inhibitor, the treated embryogenic callus is placed on fresh initiation medium for the development and maturation of somatic embryos and cultured as described above. The mature somatic embryos are placed on the germination medium and cultured as described above to germinate double haploid plantlets as described above.
Embryogenic callus prepared as described in Example 5 which is above to develop into somatic embryos (after forty days of embryogenic callus induction) was treated with different concentration of colchicines (0.1-1%) for three-days. The culture condition (temperature, photoperiod and light) are same as described above. After the colchicine treatment, the treated embryogenic callus was transferred to fresh initiation medium (MS medium containing 2,4-D (6.78 μM)) and cultured as described in Example 5 for the development of somatic embryos. The mature somatic embryos were transferred to germination media (MS medium fortified with GA3 and IBA) and cultured as described in Example 5 for plantlet development.

[6] = hormone alone in MS initiation medium, 2,4-D 2.26, 4.52, 6.78, 9.02 μM, IAA 0.71-5.70 μM, IBA 0.615-4.92 μM

## O=C(O)Cc1c[nH]c2ccccc12 [IAA, indole-3-acetic acid]
[1]; [6]
  induction of embryogenic callus: induced only non-embryogenic callus
[2]
  germination of somatic embryos: not effective

## c1coc(CNc2ncnc3[nH]cnc23)c1 [KN, kinetin]
[2]
  growth of germinated plantlets: enhanced the growth of germinated plantlets
[3]; MS medium with KN 2.3 μM and IBA 1.0 μM
  development of somatic embryos: developed
[3]; MS medium with KN 9.3 μM
  induction of embryogenic callus from leaf explants: induced

## O=C(O)CCCc1c[nH]c2ccccc12 [IBA, indole-3-butyric acid]
[1]; [6]
  induction of embryogenic callus: induced only non-embryogenic callus
[2]
  germination of somatic embryos: effective; also recorded: occurred

## O=C(Nc1ccccc1)Nc1cnns1 [TDZ, thidiazuron]
[2]
  growth of germinated plantlets: enhanced the growth of germinated plantlets

## Nc1ncnc2nc[nH]c12.O=S(=O)(O)O [AdSO4, adenine sulphate]
[1]; addition to callus induction medium
  type of callus induced: induction of greenish compact callus that becomes non-embryogenic
[2]; sulphate
  growth of germinated plantlets: enhanced the growth of germinated plantlets
[3]; 13.6 μM added
  effect on somatic embryo development: stimulated the process of somatic embryo development

## O=C(O)Cc1cccc2ccccc12 [NAA]
[2]
  germination of somatic embryos: not effective

## c1ccc(CNc2ncnc3nc[nH]c23)cc1 [BA, 6-benzylaminopurine]
[2]
  growth of germinated plantlets: enhanced the growth of germinated plantlets

## O=C(O)COc1ccc(Cl)cc1Cl [2,4-D, 2,4-dichlorophenoxyacetic acid]
[1]; MS medium supplemented with 2,4-D, dark conditions
  induction of embryogenic callus: induced embryogenic callus; also recorded: vital
[1]; MS medium supplemented with 2,4-D, in the presence of light
  induction of embryogenic callus: not result in the induction of embryogenic callus
[1]; [6]
  induction of embryogenic callus: effective in inducing embryogenic callus
[4]; MS medium containing 2,4-D
  somatic embryo development (globular, heart, torpedo and cotyledon-shaped): effective
[4]; continuous culture in MS medium containing 2,4-D
  outcome of continuous culture of somatic embryos: abnormal somatic embryo formation without germination

## COc1cc2c(c(OC)c1OC)-c1ccc(OC)c(=O)cc1[C@@H](NC(C)=O)CC2 [colchicines, colchicine]
[5]; 0.1-1% tested, three days treatment of embryogenic callus
  most effective concentration for production of double haploid plantlets: 0.5%
[5]; concentration above 0.5%
  effect on callus at higher concentration: callus become brown and died
[5]; plantlets from treated embryogenic callus
  morphological characters of treated plantlets: like double haploid

— US8691577B2, “Somatic embryogenesis of Jatropha curcas from ovules” (Joil (S) Pte Ltd., priority 2008, dated 2014)
